Measured values published in the pKa sets of Baltruschat and Czodrowski (2020).

Conditions: acidic group

Compared with CCCCSC(=N)c1ccccc1, O=C([O-])/C(=N\O)c1ccccc1 is higher in pKa: 8.21 for the first, 10.9 for the second.

First: Cc1nc2c(=O)[nH]c(=O)[nH]c2n1C
Second: O=C1CC(S)C(=O)N1 (configuration not stated)
The pKa of the first is lower: 6.2 for the first, 6.65 for the second.

First: Oc1c2ccccc2[nH+]c2ccccc12
Second: Oc1ccc2nc3ccccc3nc2c1
The pKa of the first is lower: 0.32 for the first, 7.45 for the second.

CC1(C)S[C@H]2[C@@H](NC(=O)Cc3ccccc3)C(=O)N2[C@@H]1C(=O)O and Cc1ccc(OCC(=O)N[C@H]2C(=O)N3[C@H]2SC(C)(C)[C@H]3C(=O)O)cc1 are within 0.2 log units of each other in pKa: 2.76 for the first, 2.8 for the second.

First: O=[N+]([O-])c1ccc(NS(=O)(=O)c2ccccc2)cc1
Second: O=[N+]([O-])c1ccc(/C(=N\O)c2ccccc2)cc1
The pKa of the first is lower: 6.63 for the first, 10.8 for the second.

Compared with C[n+]1ccc(C(=O)O)cc1, Cc1ccc(C(=O)O)cc1O is higher in pKa: 1.72 for the first, 4.32 for the second.

Compared with Cc1cccc(C(=O)O)[nH+]1, Cc1c(O)cccc1C(=O)O is higher in pKa: 0.9 for the first, 3.83 for the second.

Going from C[N+]1(CCCCC(=O)O)CCCCC1 to O=C(O)C1(O)CCCCCC1, the pKa falls from 4.33 to 4.04.

First: Cc1cc(O)cc(C)c1[N+](=O)[O-]
Second: Cc1ccc(O)c(Cc2cc(C)cc([N+](=O)[O-])c2[O-])c1
The pKa of the first is lower: 8.25 for the first, 11.7 for the second.

Compared with CC1(C)[C@@H]2CC[C@](C(=O)O)(C2)[C@H]1O, C[C@@H]1CC[C@H](C)[C@H]1C(=O)O is lower in pKa: 5.05 for the first, 4.69 for the second.

First: Cc1ccc(S(=O)(=O)N(CC[NH2+]CC(=O)O)CC(=O)O)cc1
Second: NS(=O)(=O)c1ccc(F)cc1
The pKa of the first is lower: 1.99 for the first, 9.34 for the second.

First: Cc1ccc(C(=O)O)s1
Second: Cc1ccc(C(=O)O)c(C)c1
The pKa of the first is lower: 3.76 for the first, 4.18 for the second.

First: [NH3+]CCCCC#CC#CCCC(=O)O
Second: O=C(O)CC[C@H]1CC[C@H](O)CC1
The pKa of the first is lower: 4.15 for the first, 4.86 for the second.

Going from C/C(=C\c1ccccc1)CC(=O)O to CC(=O)N(O)c1ccccc1, the pKa rises from 5.35 to 8.36.

First: Oc1cccc(O)c1O
Second: Oc1ccc(Br)cc1Br
The pKa of the first is higher: 8.97 for the first, 7.77 for the second.

Compared with O=C1C=C(S(=O)(=O)[O-])c2[nH]ncc2/C1=N/O, CC1(C)CC(=O)C(=NO)C(=O)C1 is lower in pKa: 7.75 for the first, 5.4 for the second.

First: CCCCCCCCCc1c(O)n[nH]c1-c1ccccc1
Second: CCc1c(-c2ccccc2)n[nH]c1O
The pKa of the first is higher: 10.6 for the first, 7.8 for the second.

Compared with NC(=S)C(N)=S, CC(C#N)C(=O)O (configuration not stated) is lower in pKa: 10.9 for the first, 2.37 for the second.

Going from C[Se](=O)O to CC(=O)/C=C(/C)O, the pKa rises from 5.19 to 7.64.

Compared with CC/C=C/Cc1nccn1[C@H](C(=O)[O-])C(C)(C)S, CCc1cc(Cl)c(OC)c(C(=O)NC[C@H]2CCC[NH+]2CC)c1O is lower in pKa: 10.4 for the first, 6.91 for the second.

First: Nc1ncc2[nH]c(-c3ccccc3)nc2n1
Second: c1ccc(-c2nc3ncncc3[nH]2)cc1
The pKa of the first is higher: 9.2 for the first, 8.09 for the second.

Compared with Nc1cc[nH+]c2c1ncn2CCOCP(=O)([O-])O, Oc1ccc2[nH]cnc2c1 is higher in pKa: 7.1 for the first, 10 for the second.

Compared with Fc1ccc(NC(=S)c2ccccc2)cc1, S=C(Nc1ccc(Br)cc1)c1ccccc1 is lower in pKa: 10.8 for the first, 10.4 for the second.

Going from CC(C(=O)O)C(C#N)c1ccccc1 (configuration not stated) to CC(=O)C(C(C)=O)c1ccccc1, the pKa rises from 3.7 to 9.32.

First: O=C(O)/C=C/C(=O)CC(=O)CC(=O)O
Second: O=C(O)/C=C/CCl
The pKa of the first is lower: 3.6 for the first, 4.14 for the second.

First: NS(=O)(=O)c1nc2ccccc2s1
Second: O=[N+]([O-])c1n[nH]c(Oc2ccccc2)n1
The pKa of the first is higher: 7.8 for the first, 4.2 for the second.

Compared with S=C1NC(=S)C(c2ccccc2)N1 (configuration not stated), c1ccc(-c2nc3cnccc3[nH]2)cc1 is higher in pKa: 8.15 for the first, 10.3 for the second.

Compared with COc1ccc(O)c(CN(C)C)c1, Cc1cc(O)ccc1[S+](C)C is lower in pKa: 11.5 for the first, 7.6 for the second.

Compared with O=C(Cc1ccccc1)c1cc[n+](Cc2ccccc2)cc1, Nc1ccc(S(=O)(=O)Nc2cccc[n+]2[O-])cc1 is lower in pKa: 8.8 for the first, 5.2 for the second.

First: O=C(O)/C=C/c1ccc2c(c1)OCO2
Second: O=C(O)/C=C/c1c[nH]c[nH+]1
The pKa of the first is higher: 4.6 for the first, 3.5 for the second.

First: CC(C)C(O[C@H]1O[C@@H](C(=O)O)[C@H](O)[C@@H](O)[C@@H]1O)C(C)C
Second: O=C(O)[C@@H]1O[C@H](Oc2ccc3[nH+]c(O)ccc3c2)[C@@H](O)[C@H](O)[C@H]1O
The pKa of the first is higher: 3.89 for the first, 3.07 for the second.

Compared with CC(=O)[n+]1ccc(N)cc1, COCc1ccccc1C(=O)O is lower in pKa: 9.15 for the first, 3.85 for the second.

O=C(O)[C@@H]1O[C@H](Oc2ccc3oc4cccc(O)c4c(=O)c3c2)[C@@H](O)[C@H](O)[C@H]1O and Cc1c(Cn2cc[nH+]c2)sc2ccc(C(=O)O)cc12 are within 0.2 log units of each other in pKa: 3.94 for the first, 3.82 for the second.

Going from C[n+]1ccsc1N to C[n+]1ccncc1O, the pKa falls from 9.65 to -0.04.

Compared with [NH3+]CCS, CC(C)([SeH])C[NH3+] is lower in pKa: 8.4 for the first, 5.21 for the second.

First: COc1ccc(NC(=S)c2ccc(Cl)cc2)cc1
Second: COc1cc(S(C)=O)ccc1-c1nc2nccnc2[nH]1 (configuration not stated)
The pKa of the first is higher: 11.3 for the first, 8.94 for the second.

Compared with O=C(O)[C@@H]1C[C@@H](O)C[NH2+]1, CC(=O)N1CS(=O)C[C@H]1C(=O)O (some centres not stated) is higher in pKa: 1.92 for the first, 2.5 for the second.

Going from OC(O)c1cccnc1 to OC(O)c1ccncc1, the pKa falls from 13.1 to 12.2.

First: O/N=C\c1ccco1
Second: Cc1cccc(I)c1C(=O)O
The pKa of the first is higher: 10.8 for the first, 2.7 for the second.

Oc1cncc2cccnc12 and Oc1ccc2ncncc2c1 are within 0.2 log units of each other in pKa: 8.33 for the first, 8.19 for the second.

Compared with C=CC(O)OCC(C)O (configuration not stated), Cc1cc(C(=O)O)cc(C)[n+]1O is lower in pKa: 5.5 for the first, -0.01 for the second.

Cc1ccc(C)c(NN=C(C#N)C#N)c1 gave a pKa of 6.75.

Same assay, conditions: basic group

First: CCCc1ccc(C)nn1
Second: [O-]c1ccnc([S-])[nH+]1
The pKa of the first is lower: 4.25 for the first, 7.75 for the second.

Going from CCN(C)CCCNC(=O)/C=N/[O-] to O=C([O-])[C@]12CNCC[C@H]1O2, the pKa falls from 9.97 to 9.14.
